Measurements from article PMC7374060, “An Antivirulence Approach for Preventing Cryptococcus neoformans from Crossing the Blood-Brain Barrier via Novel Natural Product Inhibitors of a Fungal Metalloprotease” (mBio, 2020).

Target: T1, Mpr1 (Cryptococcus neoformans, UniProt J9VXZ9)
T1 construct: gene CNAG_04735; recombinant His-tagged Mpr1 secreted from Pichia pastoris expressing CnMPR1-HIS cDNA
Assay: FITC-casein proteolysis assay with purified recombinant Mpr1-His
Format: biochemical

T1 sequence (J9VXZ9 entry or part of it): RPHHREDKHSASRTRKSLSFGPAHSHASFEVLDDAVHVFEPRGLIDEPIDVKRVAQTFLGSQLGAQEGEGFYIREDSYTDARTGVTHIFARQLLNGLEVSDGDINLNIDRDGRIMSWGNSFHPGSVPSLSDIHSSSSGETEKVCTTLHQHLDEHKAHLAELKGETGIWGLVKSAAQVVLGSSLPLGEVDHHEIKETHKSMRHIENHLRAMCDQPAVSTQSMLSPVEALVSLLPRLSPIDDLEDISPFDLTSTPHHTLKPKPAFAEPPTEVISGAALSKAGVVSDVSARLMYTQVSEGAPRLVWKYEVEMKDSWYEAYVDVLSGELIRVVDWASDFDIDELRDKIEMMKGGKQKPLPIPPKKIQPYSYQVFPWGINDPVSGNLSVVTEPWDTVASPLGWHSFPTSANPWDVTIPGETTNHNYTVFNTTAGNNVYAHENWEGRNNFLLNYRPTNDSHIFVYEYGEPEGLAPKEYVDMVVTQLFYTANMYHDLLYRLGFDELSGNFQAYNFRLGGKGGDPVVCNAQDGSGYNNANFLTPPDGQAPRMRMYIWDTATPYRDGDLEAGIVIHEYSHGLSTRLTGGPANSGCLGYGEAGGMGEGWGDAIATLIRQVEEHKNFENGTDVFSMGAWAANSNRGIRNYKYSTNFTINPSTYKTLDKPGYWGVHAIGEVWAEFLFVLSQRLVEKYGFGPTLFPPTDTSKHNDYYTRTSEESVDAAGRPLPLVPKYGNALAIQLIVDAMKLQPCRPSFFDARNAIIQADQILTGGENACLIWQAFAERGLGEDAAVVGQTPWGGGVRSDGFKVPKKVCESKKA

| Compound | IC50 |
| --- | --- |
| CC(C)C1=CC2=CC[C@@H]3[C@](C)(CCC[C@@]3(C)C(=O)O)[C@H]2CC1 [NP001-1C11, abietic acid] | 5.14 µM |
| C[C@@H]1CC[C@@]2(OC1)O[C@H]1C[C@H]3[C@@H]4CC=C5C[C@@H](O)CC[C@]5(C)[C@H]4CC[C@]3(C)[C@H]1[C@@H]2C [NP002-1D9, diosgenin] | 5.03 µM |
| OC[C@@H]1CCCN2CCCC[C@H]12 [NP003-2B11, lupinine] | 9.66 µM |
